Values joined by “and” are separate entries in the source; they are usually repeats but may differ in a detail not shown here. Equal entries are not always repeated. Where two headings read alike, the source gives them in different places.
What was measured:
[1] = Comparative bioavailability study, curcumin in plasma by HPLC; type: in vivo, human; settings: for concentration at 4 hr / concentration at 6 hr / concentration at 8 hr / concentration at 24 hr: human, plasma, po, 1 gm; for Mean plasma concentration: listed as Curcumin Powder 95%; for Individual plasma concentration: single oral dose equivalent to 1 gm curcuminoids
Procedure: The bioavailability study was conducted at Amala Cancer Institute, Thrissur, Kerala on a request from the applicant. Twelve healthy subjects were recruited for the purpose of the study. […] The study design chosen was a balanced, open label, two-treatment, two-period, single dose, bioavailability study.
12 Subject were recruited for the study and were asked to avoid consumption of food containing rich turmeric powder or extract for 24 hours preceding each period. […] The following supplements were used for the purpose of the study:
Each of the supplements were administered with 240 ml water in each period.
The study design is open label, two-treatment, two-period, single dose, bioavailability study. […] Subjects were asked to avoid consumption of food containing rich turmeric powder or extract for 24 hours preceding each period. […] There was a washout period of at least 2 weeks between the doses.
Blood was drawn from each subject just prior to dosing and at 1, 2, 4, 6, 8, and 24 hours post-dose. The total blood loss for each subject was approximately 70 ml and there were totally 14 blood samples of 5 ml each time point throughout the study.
The primary efficacy variables were measured in this study were Cmax, AUCO-t and AUCO-∞ and the secondary efficacy variable were as follows Tmax, T½ and Kel. The statistical evaluation was done by Winnonlin Software 5.0.1 version. […] Tmax and T½ were also be recorded and compared for the two products.
Preparation of Sample (Spiked with Standard Solution E): The frozen plasma samples were allowed to attain the room temperature. 1000 μl of the plasma sample was pipetted out and spiked with 100 μl of spiking standard solution E. This solution was vortex for 1 minute and 3.0 ml ethyl acetate (HPLC Grade) was added to the above solutions. The solution was vortex again for 1 minute with the aid of cyclomixer and allowed to settle down at room temperature.
1.5 ml of the upper ethyl acetate layer was pipetted out and evaporated to dryness using vacuum. The dried sample was dissolved in 600 μl of methanol (HPLC Grade) using vortex mixer. This solution was filtered by 0.2 micron membrane filter paper. 100 μl of these filtered solution was injected in HPLC (Waters Alliance System with 2996 PDA detector in isocratic mode). The column used was LiChrospher 100 RP-18 (250×4.6 mm 5 μM particle size) with methanol as the mobile phase and the detection wavelength was 420 nm. To identify and quantized curcuminoids in plasma the chromatographic peaks were compared with standard solution.

Dopamine = test: Biological amine levels by HPLC-ECD after 45 min: dopamine; type: in vivo, mice
Procedure: (§1) Test Substances: […] Animals: Male Laca mice. Test Procedures: Animals were sacrificed after 45 min of drug administration similar to the time period of behavioral observations. HPLC-ECD detector: Mobile phase—Phosphate buffer: […] • Column—ODS-3 C-18 column (250×4.6 mm I.D.; 5 μm particle size)

5-hydroxytryptamine = test: Biological amine levels by HPLC-ECD after 45 min: 5-hydroxytryptamine; type: in vivo, mice
Procedure: as §1

hippocampal neurogenesis = settings: 10 and 20 mg/kg, P.O., chronically stressed rats; cited from earlier work
[2] = tested on: AC activity and c-AMP levels; settings: platelet and various brain regions, CUMS rats; cited from earlier work
rats = settings: 1.25, 2.5, 5 and 10 mg/kg P.O., chronic treatment 14 days; cited from earlier work
mice = settings: cited from earlier work
[3] = individual subjects, 1 gm curcuminoids oral, listed as Curcumin Extract Powder (min 95% Curcuminoids)
[4] = dose 100 mg/kg vs fluoxetine 10 mg/kg
[5] = dose 100 mg/kg, sacrificed after 45 min, n = 5

## COc1cc(C=CC(=O)CC(=O)C=Cc2ccc(O)c(OC)c2)ccc1O [Curcumin, 1,7-bis(4-hydroxy-3-methoxyphenyl)-1,6-heptadien-3,5-dione]
[1]; time 4 hr, 1 gm curcuminoids oral, read-out: Mean plasma concentration
  concentration at 4 hr: 7.07 ng/mL
[1]; time 4 hr, 1 gm curcuminoids oral, read-out: Median plasma concentration
  concentration at 4 hr: 7.09 ng/mL
[1]; time 4 hr, 1 gm curcuminoids oral, read-out: Min plasma concentration
  concentration at 4 hr: 0.75 ng/mL
[1]; time 6 hr, 1 gm curcuminoids oral, read-out: Geometric Mean plasma concentration
  concentration at 6 hr: 3.03 ng/mL
[1]; time 6 hr, 1 gm curcuminoids oral, read-out: Max plasma concentration
  concentration at 6 hr: 4.87 ng/mL
[1]; time 6 hr, 1 gm curcuminoids oral, read-out: Mean plasma concentration
  concentration at 6 hr: 3.23 ng/mL
[1]; time 6 hr, 1 gm curcuminoids oral, read-out: Median plasma concentration
  concentration at 6 hr: 2.77 ng/mL
[1]; time 6 hr, 1 gm curcuminoids oral, read-out: Min plasma concentration
  concentration at 6 hr: 2.05 ng/mL
[1]; time 8 hr, 1 gm curcuminoids oral, read-out: Geometric Mean plasma concentration
  concentration at 8 hr: 6.56 ng/mL
[1]; time 8 hr, 1 gm curcuminoids oral, read-out: Max plasma concentration
  concentration at 8 hr: 36.1 ng/mL
[1]; time 8 hr, 1 gm curcuminoids oral, read-out: Mean plasma concentration
  concentration at 8 hr: 18.6 ng/mL
[1]; time 8 hr, 1 gm curcuminoids oral, read-out: Median plasma concentration
  concentration at 8 hr: 18.6 ng/mL
[1]; time 8 hr, 1 gm curcuminoids oral, read-out: Min plasma concentration
  concentration at 8 hr: 1.19 ng/mL
[1]; time 24 hr, 1 gm curcuminoids oral, read-out: Geometric Mean plasma concentration
  concentration at 24 hr: 2.23 ng/mL
[1]; time 24 hr, 1 gm curcuminoids oral, read-out: Max plasma concentration
  concentration at 24 hr: 11.5 ng/mL
[1]; time 24 hr, 1 gm curcuminoids oral, read-out: Mean plasma concentration
  concentration at 24 hr: 4.27 ng/mL
[1]; time 24 hr, 1 gm curcuminoids oral, read-out: Median plasma concentration
  concentration at 24 hr: 1.93 ng/mL
[1]; time 24 hr, 1 gm curcuminoids oral, read-out: Min plasma concentration
  concentration at 24 hr: 0.53 ng/mL
[1]; [3]
  AUCINF: 87.74 ng·h/mL and 77.46 ng·h/mL
  AUCT: 38.31 ng·h/mL and 53.25 ng·h/mL and 31.24 ng·h/mL and 82.17 ng·h/mL and 175.60 ng·h/mL and 137.89 ng·h/mL and 198.27 ng·h/mL and 73.46 ng·h/mL
  Cmax: 2.48 ng/mL and 7.99 ng/mL and 15.62 ng/mL and 8.39 ng/mL and 9.09 ng/mL and 11.49 ng/mL and 36.11 ng/mL and 14.94 ng/mL
  Thalf: 11.39 h and 5.95 h and 5.21 h
  Tmax: 1.00 h and 4.00 h and 2.00 h and 24.00 h and 8.00 h
[1]; time 0 hr (prior to dosing), 1 gm curcuminoids oral
  Mean plasma concentration: 0.0000 ng/mL
[1]; time 0.00 hr (prior to dosing), individual subjects
  Individual plasma concentration: 0.00 ng/mL
[1]; time 1 hr, 1 gm curcuminoids oral
  Mean plasma concentration: 5.4638 ng/mL
[1]; time 1.00 hr, individual subjects, listed as Curcumin Extract Powder 95%
  Individual plasma concentration: 2.48 ng/mL and 7.99 ng/mL and 0.84 ng/mL and 0.05 ng/mL and 20.58 ng/mL and 0.85 ng/mL
[1]; time 2 hr, 1 gm curcuminoids oral
  Mean plasma concentration: 14.3842 ng/mL
[1]; time 2.00 hr, individual subjects, listed as Curcumin Extract Powder 95%
  Individual plasma concentration: 8.39 ng/mL and 19.82 ng/mL and 14.94 ng/mL
[1]; time 4 hr, 1 gm curcuminoids oral
  Mean plasma concentration: 7.0711 ng/mL
[1]; time 4.00 hr, individual subjects, listed as Curcumin Extract Powder 95%
  Individual plasma concentration: 0.75 ng/mL and 4.53 ng/mL and 15.62 ng/mL and 7.09 ng/mL and 7.36 ng/mL
[1]; time 6 hr, 1 gm curcuminoids oral
  Mean plasma concentration: 3.2316 ng/mL
[1]; time 6.00 hr, individual subjects, listed as Curcumin Extract Powder 95%
  Individual plasma concentration: 2.05 ng/mL and 4.87 ng/mL and 2.77 ng/mL
[1]; time 8 hr, 1 gm curcuminoids oral
  Mean plasma concentration: 18.6496 ng/mL
[1]; time 8.00 hr, individual subjects, listed as Curcumin Extract Powder 95%
  Individual plasma concentration: 1.19 ng/mL and 36.11 ng/mL
[1]; time 24 hr, 1 gm curcuminoids oral
  Mean plasma concentration: 4.2698 ng/mL
[1]; time 24.00 hr, individual subjects, listed as Curcumin Extract Powder 95%
  Individual plasma concentration: 2.47 ng/mL and 1.39 ng/mL and 0.65 ng/mL and 9.09 ng/mL and 11.49 ng/mL and 0.53 ng/mL
Dopamine; dose 100 mg/kg
  Dopamine % increase w.r.t Control: −20.25%
Dopamine; [4]
  Dopamine % increase w.r.t Fluoxetine: −21.77%
Dopamine; [5]
  Dopamine (ng/mg tissue): 4.33 ± 0.58 ng/mg tissue
5-hydroxytryptamine; dose 100 mg/kg
  5-hydroxytryptamine % increase w.r.t Control: 6.80%
5-hydroxytryptamine; [4]
  5-hydroxytryptamine % increase w.r.t Fluoxetine: −21.77%
5-hydroxytryptamine; [5]
  5-hydroxytryptamine (ng/mg tissue): 4.24 ± 0.56 ng/mg tissue
Hippocampal neurogenesis
  Hippocampal neurogenesis: increased hippocampal neurogenesis
[2]
  AC activity and c-AMP levels: enhanced AC activity and c-AMP levels
rats
  Immobility time in the forced swim test: reduced the immobility time
mice
  Immobility period: inhibited the immobility period
